Where a name gives a salt, the structure may show the parent alone. Read-outs that look alike come from different tables or passages of the source. Non-standard residues stand in square brackets, D forms with d. Residues, ends and D or L forms follow the SMILES beside them.
Assays:
S. aureus ATCC 33592 = test: microbe, parasite or virus in culture; assay type: cell-based, Staphylococcus aureus; conditions: ATCC 33592
Method: (§1) The antimicrobial activity of the peptides was determined using a broth dilution assay essentially as descried in the guidelines of the National Committee for […] (NCCLS) [National Committee for Clinical Laboratory Standards. Methods for dilution antimicrobial susceptibility tests for bacteria that grow aerobically. Fourth edition. Approved Standard (1997). Document M7-A4. […] The microdilution method has the advantages of requiring less amount of peptide for each assay and the possibility of multiple simultaneous inoculations and was used in most studies. Several of the strains of bacteria tested are further described in Table 3.
(§2) Preparation of peptide solutions. Stock peptide solutions were prepared in 5% DMSO in aq. sucrose (9%). Determination of peptide concentrations was done by quantitative HPLC analysis using known concentrations of internal standards and/or by measuring UV absorption of tryptophane-containing peptide solutions in H2O (λ=280 εTrp: 5690). Serial 2-fold dilutions were made in the above DMSO/aq. sucrose (9%) mixture with concentrations ranging approximately 400-2 μg/ml and aliquots were dispensed in test tubes (100 μl) for the macrodilution test or in microtiter plates (20 μl) for the microdilution assays.
(§3) Inoculum preparation. Overnight cultures of different microorganisms grown in suitable media were diluted 4000 times to an approximate inoculum size of 2.5×10^5 cfu/ml.
(§4) Macrodilution method. Macrodilution methods were performed using procedures similar to those described in the National Committee for Clinical Laboratory Standards. Methods for dilution antimicrobial susceptibility tests for bacteria that grow aerobically. Fourth edition. Approved Standard (1997). Document M7-A4. (NCCLS,Villanova, Pa., 1997). Two ml aliquots of the above inoculum were dispensed to test tubes containing different peptide solutions.
(§5) Microdilution method. Microdilution methods were performed using procedures similar to those described in the National Committee for Clinical Laboratory Standards. Methods for dilution antimicrobial susceptibility tests for bacteria that grow aerobically. Fourth edition. Approved Standard (1997). Document M7-A4.

[1] = system: E. coli (EL744) K12 (tolC::kan); test: microbe, parasite or virus in culture; assay type: cell-based, Escherichia coli; conditions: MHII broth
Method: as §1, §2, §3, §4, §5

E. coli (K12) = test: microbe, parasite or virus in culture; assay type: cell-based, Escherichia coli; conditions: K12
Method: as §1, §2, §3, §4, §5

E. faecalis ATCC 51299 = test: microbe, parasite or virus in culture; assay type: cell-based, Enterococcus faecalis; conditions: ATCC 51299
Method: as §1, §2, §3, §4, §5

H. influenzae ATCC 49247 = test: microbe, parasite or virus in culture; assay type: cell-based, Hemophilus influenzae; conditions: ATCC 49247
Method: as §1, §2, §3, §4, §5

E. faecium SP180 = test: microbe, parasite or virus in culture; assay type: cell-based, Enterococcus faecium; conditions: SP180
Method: as §1, §2, §3, §4, §5

[2] = Single channel conductance in planar lipid membranes; conditions: for rate of channel mediated K+ transport / observed conductance: 500 mM KCl; for observed conductance: peptide about 30 mM in the subphase; for transport speed relative to gramicidin A: similar conditions
Method: The ion transport properties of tetrapeptides cyclo[(β-Trp)4] and cyclo[(β-Trp-β-Leu)2], synthesized via established protocols, were studied in liposome-based assays and by single channel conductance measurements in planar lipid membranes. The observed conductance in 500 mM KCl with peptide concentrations of about […] in the subphase is 56 pS, corresponding to the rates of channel mediated K^+ transport of 1.9×10^7 ions s^−1 for both tetrapeptides.

[3] = system: S. aureus (MRSA) ATCC 33591; assay type: cell-based, Staphylococcus aureus; conditions: for MRSA (in vitro activity): Table 9
How it was run: (§6)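 MICs come from NCCLS-style (M7-A4) dilution testing, mostly microdilution, with an inoculum near 2.5×10^5 cfu/ml from 4000-fold-diluted overnight cultures. Peptide series were 2-fold steps spanning roughly 400–2 μg/ml, prepared in 9% aqueous sucrose with 5% DMSO.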

[4] = system: vancomycin-resistant Enterococus faecalis (VRE)(ATCC 51575); assay type: cell-based, Enterococcus faecalis; design: key to VRE (in vitro activity): peptide concentration in μg/ml (broth dilution assay); conditions: for VRE (in vitro activity): Table 9
How it was run: as §6

murine red blood cells = test: Red blood cell hemolysis; assay type: cell-based, mouse
How it was run: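 Washed murine erythrocytes at 5% in saline with 10% FBS were exposed to serial peptide dilutions for 30 min at 37° C. Supernatant absorbance at 560 nm was read, with saline as 0% and 1% Triton X-100 as 100% hemolysis.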

[5] = system: S. aureus MRSA (ATCC 33591); test: Mouse peritonitis model, MRSA protection; assay type: in vivo, mice; design: PD50 MRSA: unit not given here
Method: Bacteria were prepared for in vivo using procedures similar to those as previously described. […] S. aureus MRSA bacteria (ATCC 33591) were grown at 37° C. in 5 mL of Antibiotic Medium-3 (AM-3, Difco Laboratories) with agitation for 12 hours to a stationary phase. Cells were collected by centrifugation, washed twice with saline solution and resuspended in about 10 mL of saline to an O.D.650 of 1.2. This suspension was diluted ten times in a sterilized 5% mucin (Difco) in saline to a concentration of 2-4×10^7 cfu/ml (actual inoculum size was verified by colony counts on agar plates).
(§7) Peptides of the invention were tested in mice to ascertain whether they would protect the mice against bacterial infection using procedures similar to those described in N. Frimodt-Moller et al., The Mouse Peritonitis/Sepsis Model, in Zak et al. (eds.) HANDBOOK OF ANIMAL MODELS OF INFECTION 127-37 (Academic Press 1999).
(§8) Male Balb-C mice (6 weeks old, approximately 20 g) were used in the study. Staphylococcus aureus MRSA bacteria (ATCC 33591) were grown at 37° C. with agitation for 12 hours to a stationary phase. Cells were collected by centrifugation, washed twice with saline and resuspended to an O.D.650 of 1.4. This suspension was diluted ten times with saline and resuspended to a concentration of 3-5×10^7 cfu/ml. For each peptide five groups of eight mice per group were infected I.P. with 0.5 ml of the above Staphylococcus aureus MRSA preparation (lethal dose). Forty-five minutes to an hour after infection, each group was treated with a different dose of peptide and a control group received vehicle only. Mice were monitored for fourteen days; death was defined as the end point. Median protecting doses (PD50) were calculated following the Reed and Muench method. […] For IV and SQ models peptide was administered immediately after IP infection.

[6] = system: Streptococcus pneumoniae (ATCC 6301); assay type: cell-based
How it was run: as §6

[7] = system: Bacillus cereus ATCC 11778; assay type: cell-based
How it was run: as §6

[8] = system: vancomycin resistant E. faecium (VREF)(ATCC 51575); test: Mouse peritonitis model, VREF protection; assay type: in vivo, mice; design: PD50 VREF: unit not given here
Method: Vancomycin resistant Enterococcus faecium (VREF) bacteria (ATCC 51575) were grown at 37° C. in 60 mL of Brain Heart Infusion medium (BHI, Difco Laboratories) with agitation for 16 hours to a stationary phase. Cells were collected by centrifugation, washed twice with saline solution and resuspended in 6 mL of saline to a theoretical O.D.650 of 9-10 (determined by taking OD.650 of 10-20 fold diluted samples and correlating it to the original concentration). This suspension was diluted 15 times in a sterilized 5% mucin (Difco) in saline to a concentration of 5-7×10^8 cfu/ml (actual inoculum size was verified by colony counts on agar plates).
as §7, §8

[9] = media b: cation adjusted Meuller Hinton broth (MHBII)
[10] = media c: Brain Heart Infusion (BHI)
[11] = Table 12, male Balb-C mice, IP infection, IP peptide
[12] = single bolus IP dose of appropriate amount, 45-60 min after infection

CC(C)C[C@H]1NC(=O)[C@H](CCCNC(=N)N)NC(=O)[C@@H](CCCNC(=N)N)NC(=O)[C@H](Cc2c[nH]c3ccccc23)NC(=O)[C@@H](CC(C)C)NC(=O)[C@H](Cc2c[nH]c3ccccc23)NC1=O [[RRLWLW]-HCl, cyclo-(D-Arg-Arg-D-Leu-Trp-D-Leu-Trp)] (cyclo(R[dL]W[dL]W[dR]))
S. aureus ATCC 33592 MIC (S. aureus ATCC 33592): 32 µg/mL | E. coli (EL744) K12 (tolC::kan) MIC [1]: 8 µg/mL | E. coli (K12) MIC (E. coli (K12)): 16 µg/mL | E. faecalis ATCC 51299 MIC (E. faecalis ATCC 51299): 32 to 64 µg/mL | H. influenzae ATCC 49247 MIC (H. influenzae ATCC 49247): 8 to 16 µg/mL | E. faecium SP180 MIC (E. faecium SP180): 8 to 16 µg/mL

cyclo[(β-Trp)4]
rate of channel mediated K+ transport [2]: 1.9×10^7 ions s^−1 | observed conductance [2]: 56 pS | transport speed relative to gramicidin A [2]: more than twice

CC(C)C[C@H]1NC(=O)[C@H](Cc2c[nH]c3ccccc23)NC(=O)[C@@H](CCCCN)NC(=O)[C@H](CCCNC(=N)N)NC(=O)[C@@H](CCCNC(=N)N)NC(=O)[C@H](Cc2c[nH]c3ccccc23)NC(=O)[C@@H](CC(C)C)NC(=O)[C@H](Cc2c[nH]c3ccccc23)NC1=O [[RRKWLWLW]-HCl, cyclo-(D-Arg-Arg-D-Lys-Trp-D-Leu-Trp-D-Leu-Trp)] (cyclo([dR]R[dK]W[dL]W[dL]W))
S. aureus ATCC 33592 MIC (S. aureus ATCC 33592): 8 µg/mL | E. coli (K12) MIC (E. coli (K12)): 32 µg/mL | E. faecalis ATCC 51299 MIC (E. faecalis ATCC 51299): 8 to 16 µg/mL | MRSA (in vitro activity) [3, 9]: 9 | VRE (in vitro activity) [4, 10]: 9 | H. influenzae ATCC 49247 MIC (H. influenzae ATCC 49247): 32 to 64 µg/mL | E. faecium SP180 MIC (E. faecium SP180): 4 µg/mL | RBC Hemolysis (HD50) (murine red blood cells): 70

cyclo[(β-Trp-β-Leu)2]
rate of channel mediated K+ transport [2]: 1.9×10^7 ions s^−1 | observed conductance [2]: 56 pS | transport speed relative to gramicidin A [2]: more than twice

CC(C)C[C@H]1NC(=O)[C@H](CCCCN)NC(=O)[C@@H](CCCCN)NC(=O)[C@H](Cc2c[nH]c3ccccc23)NC(=O)[C@@H](CC(C)C)NC(=O)[C@H](Cc2c[nH]c3ccccc23)NC1=O [[KKLWLW]-HCl, cyclo-(D-Lys-Lys-D-Leu-Trp-D-Leu-Trp)] (cyclo(K[dL]W[dL]W[dK]))
S. aureus ATCC 33592 MIC (S. aureus ATCC 33592): 32 µg/mL | E. coli (EL744) K12 (tolC::kan) MIC [1]: 32 µg/mL | E. coli (K12) MIC (E. coli (K12)): >128 µg/mL | E. faecalis ATCC 51299 MIC (E. faecalis ATCC 51299): >128 µg/mL | H. influenzae ATCC 49247 MIC (H. influenzae ATCC 49247): >128 µg/mL | E. faecium SP180 MIC (E. faecium SP180): 16 µg/mL

CC(C)C[C@H]1NC(=O)[C@H](Cc2c[nH]c3ccccc23)NC(=O)[C@@H](CCCCN)NC(=O)[C@H](CCCCN)NC(=O)[C@@H](CCCCN)NC(=O)[C@H](Cc2c[nH]c3ccccc23)NC(=O)[C@@H](CC(C)C)NC(=O)[C@H](Cc2c[nH]c3ccccc23)NC1=O [SEQ ID NO:17, cyclo[-(D-Lys-Lys-D-Lys-(Trp-D-Leu)2-Trp-]] (cyclo([dK]K[dK]W[dL]W[dL]W))
PD50 S. aureus MRSA infection [5]: 7 mg/kg | PD50 protective dose where 50% of animals survive ([5]; FIG. 6, mice challenged with lethal doses of MRSA): 6 ± 2 mg/kg | PD50 MRSA [5, 11]: 7 | protection of mice from MRSA infection [5, 12]: completely protect | MRSA MIC ([3]; ATCC 33591): 10 µg/mL | S. aureus (MRSA) MIC ([3]; ATCC 33591): 8 µg/mL | MRSA (in vitro activity) ([3]; media a: anti-microbial media-3 (AM-3)): 10 | S. pneum. MIC [6]: 10 µg/mL | B. cerius MIC [7]: 5 µg/mL | PD50 E. faecium VREF infection [8]: 13 mg/kg | PD50 VREF [8, 11]: 13 | protection of mice from VREF infection [8, 12]: completely protect | VRE MIC ([4]; ATCC 51575): 40 µg/mL | VRE (in vitro activity) ([4]; media a: AM-3): 40 | RBC Hemolysis (HD50) (murine red blood cells): 45

CC(C)C[C@H]1NC(=O)[C@H](Cc2c[nH]c3ccccc23)NC(=O)[C@@H](CCCCN)NC(=O)[C@H](CO)NC(=O)[C@@H](CCCCN)NC(=O)[C@H](Cc2c[nH]c3ccccc23)NC(=O)[C@@H](CC(C)C)NC(=O)[C@H](Cc2c[nH]c3ccccc23)NC1=O [[KSKWLWLW]-HCl, D-Lys-Ser-D-Lys-Trp-D-Leu-Trp-D-Leu-Trp] (cyclo([dK]S[dK]W[dL]W[dL]W))
S. aureus ATCC 33592 MIC (S. aureus ATCC 33592): 4 µg/mL | E. faecalis ATCC 51299 MIC (E. faecalis ATCC 51299): 8 µg/mL | MRSA (in vitro activity) [3, 9]: 9 | VRE (in vitro activity) [4, 10]: 9 | H. influenzae ATCC 49247 MIC (H. influenzae ATCC 49247): 32 µg/mL | E. faecium SP180 MIC (E. faecium SP180): 4 µg/mL | RBC Hemolysis (HD50) (murine red blood cells): 60

— US20050107289A1, “Anti-microbial peptides and compositions” (priority 2001, published 2005)
